Common to all, as to test: DTP human tumour cell line panel, 48 h
For assay [1], the system named is NCI-H23.
Assay [2] deals with SK-MEL-28.
Assay [3] concerns OVCAR-4.
For assay [4], the system named is HL-60.
Assay [5] concerns HCT-15.
In assay [6] the test system is U-251.
Assay [7] deals with HCC 2998.
Assay [8] deals with IGROV-1.
Assay [9] concerns TK-10.
In assay [10] the test system is UACC-257.
Assay [11] has as its system UO-31.
The subject of assay [12] is HOP-62.
Assay [13] concerns NCI-H522.
The test system of assay [14] is CAKI-1.
For assay [15], the system named is SF-295.
For assay [16], the system named is OVCAR-5.
For assay [17], the system named is HOP-92.

Structures are written as SMILES.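 Exposure lasted 48 hours, with cells grown in 96-well plates and compounds tested at five concentrations. Abbreviation: GI50, concentration required for 50% inhibition of growth.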 Calls of active or inactive are those of the source. No stated cut-off is given here; in the data, active = GI50 up to about 1.1 µM and inactive = higher.

In general, GI50 refers to the concentration at which growth is held to half of that of the control.

`COc1ccccc1-c1cc(O)c2cc3c(cc2n1)OCO3`: the GI50 is 54.6 µM (inactive) in [1]; > 100 µM (inactive) in assay [2]; 25.5 µM (inactive) in [3]; 19.5 µM (inactive) in [4]; 12.3 µM in assay [5]; > 100 µM (inactive) in assay [6]. Besides, the GI50 in assay [7] was 40.1 µM (inactive); in assay [8] it was 35.2 µM (inactive); in [9], > 100 µM (inactive); in [10], 80.9 µM (inactive); in assay [11], 65.2 µM (inactive); in assay [12] it was 14.3 µM (inactive).
As for `O=C(NO)c1ccc([N+](=O)[O-])cc1`, the GI50 was 36.6 µM (inactive) in assay [1]; 23.4 µM (inactive) in assay [2]; 21 µM (inactive) in [13]; 20.7 µM (inactive) in assay [4]; 64.3 µM in [5]; 43 µM (inactive) in [6]. Besides, the GI50 in assay [14] was 61 µM (inactive); in assay [7] it was 37.8 µM (inactive); in [8], 49.9 µM (inactive); in assay [9] it was 37.3 µM (inactive); in assay [10] it was 28.6 µM (inactive); in assay [11] it was 24.8 µM (inactive). Also, the GI50 is 42.1 µM (inactive) in [15] and 29.3 µM (inactive) in assay [12].
`Cc1cc(Cl)ccc1N1C(=O)C(=O)C(c2nc3ccccc3s2)C(=O)C1=O`: the GI50 in assay [1] was > 100 µM (inactive); in assay [2] it was > 100 µM (inactive); in [3], > 100 µM (inactive); in [13], > 100 µM (inactive); in assay [4], > 100 µM (inactive); in [5] it was more than 100 µM. For the same molecule, the GI50 in assay [6], in [16], in [17], in assay [14], in assay [8] and in [9] was > 100 µM (inactive) in each case. The GI50 in assay [10], in assay [11], in assay [15] and in assay [12] was > 100 µM (inactive) each time.
Take `COc1cc(C(C)O)c[n+](CCc2c[nH]c3ccccc23)c1` (stereo not given): the GI50 in [1] is > 100 µM (inactive); in assay [3] it was > 100 µM (inactive); in assay [13] it was 83.9 µM (inactive); in [4], > 100 µM (inactive); in assay [5] it was more than 100 µM; in assay [6] it was > 100 µM (inactive). In addition, the GI50 in assay [14], in assay [7], in [8], in assay [9], in [10] and in assay [11] was > 100 µM (inactive) in each case. For the same molecule, the GI50 in [15] and in assay [12] was > 100 µM (inactive) throughout.
`COC1CC(Br)(C#N)C1` (stereo not given): the GI50 in assay [1] is > 100 µM (inactive); in assay [2], > 100 µM (inactive); in assay [3], > 100 µM (inactive); in assay [4], > 100 µM (inactive); in assay [5], more than 100 µM; in assay [6] it was > 100 µM (inactive). The GI50 in assay [16], in assay [17], in [14], in [7], in assay [8] and in [9] was > 100 µM (inactive) throughout. Further, the GI50 in [11], in [15] and in assay [12] was > 100 µM (inactive) in each case.
With `NC(=O)/C=C/C(=O)O`, the GI50 is > 5000 µM (inactive) in assay [1]; > 5000 µM (inactive) in assay [2]; > 5000 µM (inactive) in assay [3]; > 5000 µM (inactive) in assay [13]; > 5000 µM (inactive) in [4]; more than 5000 µM in assay [5]. The GI50 in assay [6], in assay [16], in assay [17], in [8], in [9] and in assay [10] was > 5000 µM (inactive) each time. For the same molecule, the GI50 in assay [11], in assay [15] and in assay [12] was > 5000 µM (inactive) throughout.
Take `CC1=NN(C(=O)Cc2ccccc2)C(=O)/C1=C\c1cccc(O)c1`: the GI50 was > 100 µM (inactive) in assay [1]; > 100 µM (inactive) in assay [2]; > 100 µM (inactive) in assay [3]; > 100 µM (inactive) in [13]; > 100 µM (inactive) in assay [4]; more than 100 µM in assay [5]. The GI50 in [6], in assay [16], in assay [14], in assay [7], in assay [9] and in [10] was > 100 µM (inactive) in each case. Besides, the GI50 in assay [11], in assay [15] and in assay [12] was > 100 µM (inactive) each time.
Consider `NC1=NN(c2ccccc2)C(=O)C1C(=O)C(=O)NC1C2CC3CC(C2)CC1C3` (stereo not given), for which the GI50 was > 100 µM (inactive) in assay [1]; > 100 µM (inactive) in [2]; > 100 µM (inactive) in assay [3]; > 100 µM (inactive) in assay [4]; more than 100 µM in assay [5]; > 100 µM (inactive) in assay [6]. Further, the GI50 in assay [16], in [17], in assay [7], in assay [8], in assay [9] and in assay [10] was > 100 µM (inactive) throughout. The GI50 in assay [11], in assay [15] and in [12] was > 100 µM (inactive) each time.
Turning to `C/C(=N\NC(=O)CC(=O)N(C(=O)c1ccc(Cl)cc1)c1ccc(C)cc1)c1ccccc1O`, the GI50 is > 100 µM (inactive) in [1]; 61.8 µM (inactive) in assay [2]; 1.67 µM (inactive) in [3]; 36.6 µM (inactive) in assay [13]; 4.88 µM in assay [5]; 19.6 µM (inactive) in assay [6]. In addition, the GI50 in [16] is > 100 µM (inactive); in assay [14] it was 64 µM (inactive); in assay [8], > 100 µM (inactive); in assay [9], 17.6 µM (inactive); in assay [10], > 100 µM (inactive); in assay [11], 4.82 µM (inactive). In addition, the GI50 in assay [15] is 7.33 µM (inactive); in assay [12] it was 37 µM (inactive).
As for `N#Cc1ccc(C2SCc3nc4ccccc4n32)cc1` (stereo not given), the GI50 in assay [1] is 25.6 µM (inactive); in [2] it was 42.4 µM (inactive); in assay [3], 83.2 µM (inactive); in assay [13], 12.3 µM (inactive); in assay [4], 31.3 µM (inactive); in assay [5] it was more than 100 µM. In addition, the GI50 is > 100 µM (inactive) in assay [6]; > 100 µM (inactive) in [14]; > 100 µM (inactive) in assay [7]; 79.4 µM (inactive) in assay [8]; 81.7 µM (inactive) in assay [9]; > 100 µM (inactive) in assay [10]. Besides, the GI50 in assay [11] was 15.2 µM (inactive); in assay [15] it was 74.3 µM (inactive); in assay [12], 98.6 µM (inactive).

The values above are taken from ChEMBL document CHEMBL1201862, “PubChem BioAssay data set” (2004).
